Experimental data from patent EP0433163A2, “Process for the preparation of imidazobenzodiazepines and their salts” (ROUSSEL-UCLAF, priority 1989, dated 1991).

Experiments:
[1] = molecular target: récepteurs de benzodiazépine; assay: Benzodiazepine receptor binding (FRB), method of GB 2 128 989; conditions: in vitro benzodiazepine receptor binding; type of value not stated; read-out: FRBnM
Source text: La recherche de la fixation aux récepteurs de benzodiazépine (FRB) est réalisée par le procédé décrit dans GB 2 128 989.

[2] = system: récepteurs de benzodiazépine; assay: In vivo binding to benzodiazepine receptors, method of Goeders and Kuhar, Life Sciences (1985) 37 345
Source text: La mesure de la fixation in vivo aux récepteurs de benzodiazépine est réalisée selon le procédé décrit par Goeders N.E. and Kuhar M J, Life Sciences (1985) 37 345.

Row | SMILES | IC50 [1] [µM] | Fixation in vivo DE50 mg/pk ip [2]
1 | CN1Cc2c(C(=O)C3CC3)ncn2-c2cccc(Cl)c2C1=O [EXEMPLE 3B, 7-chloro-5,6-dihydro-5-méthyl-6-oxo-4H-imidazo [1,5-a] [1,4] benzodiazépine-3-yl-cyclopropylméthanone] | 0.0077 | 
2 | CCOC(=O)c1ncn2c1CN(C)C(=O)c1c(F)c(F)c(F)c(F)c1-2 [EXEMPLE 1G, 5,6-dihydro-5-méthyl-6-oxo-7,8,9,10-tétrafluoro-4H-imidazo [1,5-a] [1,4] benzodiazépine-3-carboxylate d'éthyle] | 7.5 | 100 mg/pk
3 | CN1Cc2c(C(=O)C3CC3)ncn2-c2cccc(F)c2C1=O [EXEMPLE 3D, 5,6-dihydro-7-fluoro-5-méthyl-6-oxo-4H-imidazo [1,5-a] [1,4] benzodiazépine-3-yl-cyclopropylméthanone] | 0.027 | 
4 | CCOC(=O)c1ncn2c1CN(C)C(=O)c1cccc(N)c1-2 [EXEMPLE 6, 5,6-dihydro-10-amino-5-méthyl-6-oxo-4H-imidazo [1,5-a] [1,4] benzodiazépine-3-carboxylate d'éthyle] | 0.966 | 
5 | O=C1NCc2c(C(=O)C3CC3)ncn2-c2ccccc21 [EXEMPLE 4, 5,6-dihydro-6-oxo-4H-imidazo [1,5-a] [1,4] benzodiazépine-3-yl-cyclopropylméthanone] | 0.582 | 
6 | CCOC(OCC)c1ncn2c1CN(C)C(=O)c1c(Cl)cccc1-2 [EXEMPLE 5, 7-chloro-3-diethoxyméthyl-5,6-dihydro-5-méthyl-4H-imidazo [1,5-a] [1,4] benzodiazépine-6(4H)-one] | 0.339 | 2,1 mg/pk
7 | CCOC(=O)c1ncn2c1CN(C)C(=O)c1c(F)ccc(F)c1-2 [EXEMPLE 1E, 7,10-difluoro-5,6-dihydro-5-méthyl-6-oxo-4H-imidazo [1,5-a] [1,4] benzodiazépine-3-carboxylate d'éthyle] | 0.174 | 1,1 mg/pk
8 | CCOC(=O)c1ncn2c1CN(C)C(=O)c1cccc(F)c1-2 [EXEMPLE 1D, 5,6-dihydro-10-fluoro-5-méthyl-6-oxo-4H-imidazo [1,5-a] [1,4] benzodiazépine-3-carboxylate d'éthyle] | 0.41 | 21 mg/pk
9 | CN1Cc2c(C(=O)C3CC3)ncn2-c2cccc(C(F)(F)F)c2C1=O [EXEMPLE 3C, 5,6-dihydro-5-méthyl-6-oxo-7-trifluorométhyl-4H-imidazo [1,5-a] [1,4] benzodiazépine-3-yl-cyclopropylméthanone] | 0.0094 | 0,05 mg/pk
